Data taken from PMC8921064 (Archives of Toxicology, 2022).
“And” between values parts separate entries of the source, which are not always exact repeats. Equal values may be shown once.

Assays:
[1] = tested on: human liver microsomes (HLM); assay: Human liver microsomal incubation, metabolite formation quantified by UPLC; conditions: HLM
Experimental: (§1) The incubation mixtures were prepared and incubated in glass vials to avoid plastic binding of the substrates. The glass vials were capped to prevent substrate loss due to volatility. After preincubation of the incubation mixture at 37 °C for 1 min, the enzymatic reaction was initiated by adding microsomes to the incubation mixture which was subsequently incubated at 37 °C for 20 min. The reaction was terminated by adding 100 µl ice-cold acetonitrile followed by vortexing. After 5 min centrifugation at 5000 rpm (4000 × g), 4 °C, the supernatant was collected for ultraperformance liquid chromatography (UPLC) analysis. […] Therefore, a diisopropylether (DIPE) extraction of the metabolites was performed after the reaction was stopped by the addition of 20 µl 10% HClO4. To this end, the incubation mixture (total volume of 220 µl) was extracted three times with 1 ml DIPE. Each time, the upper organic layer was collected and the DIPE was subsequently evaporated from the combined organic fractions with a gentle stream of nitrogen. The residues were dissolved in 100 µl methanol and analyzed by UPLC.
(§2) The metabolites formed were analyzed and quantified using an Acquity UPLC system equipped with a photodiode array (PDA) detector (Waters, Milford, MA). The metabolites and their parent compound were separated on a reverse phase Acquity UPLC® BEH C18 column ([…], 1.7 µm, Waters, Milford, MA) and detected at wavelengths ranging from 190 to 400 nm. Eluent A was nano-pure water containing 0.1% trifluoroacetic acid (v/v), and eluent B was acetonitrile containing 0.1% trifluoroacetic acid (v/v). The gradient elution started from 90% A and 10% B applied from 0.0 min to 0.5 min, which was changed to 0% A and 100% B from 0.5 to 15.5 min and then kept at 0% A and 100% B from 15.5 min to 18.5 min, changed back to 90% A and 10% B from 18.5 to 18.6 min and then maintained at the starting conditions from 18.6 min until 22 min. The total run time was 22 min using a flow rate of 0.6 ml/min. The temperature of the column was set at 40 °C and that of the autosampler at 10 °C during the UPLC analysis. The injection volume was 3.5 µl. Metabolites were quantified using their peak area at the wavelength specified in Table 1, using calibration curves of available reference compounds. Metabolites were identified by comparing their retention time (RT) and UV spectrum to those of reference chemicals on UPLC. When reference chemicals were not available, metabolite identification by gas chromatography-triple quadrupole mass spectrometry (GC–MS/MS) was performed. The minor metabolites were identified by elution time and mass spectra both on UPLC and GC–MS/MS, and by comparison with available elution and spectral information from the literature.
(§3) The metabolite concentrations in the microsomal incubation mixtures as quantified by UPLC were used to calculate the rate of the enzymatic conversions in pmol/min/mg microsomal protein. The kinetic parameters KM and Vmax were obtained using a nonlinear regression curve fit applying the Michaelis Menten equation in GraphPad Prism 5 (San Diego, USA). To compare the catalytic efficiency of formation of the different metabolites the intrinsic clearance (Clint) was calculated as Vmax divided by KM.

[2] = tested on: rat liver microsomes (RLM); assay: Rat liver microsomal incubation, metabolite formation quantified by UPLC; conditions: RLM
Experimental: as §1, §2, §3

[3] = tested on: Salmonella typhimurium TA98; assay: Reverse mutation assay (Ames test), TA98; conditions: positive control, 10 µg/plate NF; mean ± SD of 3 plates
Experimental: Six concentrations of each compound were tested in triplicate in the absence and presence of 5% (v/v) S9-mix prepared from the livers of Aroclor 1254 treated Sprague–Dawley rats. The S9-mix contained 4 mM NADP, 5.8 mM glucose-6-phosphate, 0.1 M sodium phosphate pH 7.4, 8 mM MgCl2, 33 mM KCl and 5% S9 homogenate. Fresh bacterial cultures were prepared overnight to reach 10^9 cells/ml. The following solutions were pre-incubated in a rotating incubator at 70 rpm and 37 °C, and contained either 0.5 ml S9-mix (in case of S9 presence) or 0.5 ml 0.1 M potassium phosphate pH 7.4 (in case of S9 absence), 0.1 ml of a fresh bacterial culture (10^9 cells/ml) of TA98 or TA100, […] Top agar was melted and heated to 45 °C. After preincubation, the substrate solutions were added to 3 ml of the molten top agar and mixed by vortexing and the top agar mixture was poured onto a minimal glucose agar plate. After solidification of the top agar, the plates were incubated at 37 °C for 48 h. The number of revertant colonies per plate was automatically counted with the Instem Sorcerer Colony Counter (Staffordshire, UK). In the absence of S9-mix, 2-nitrofluorene (NF) and methylmethanesulfonate (MMS) were tested as positive controls for incubations with TA98 and TA100, respectively. In the presence of S9-mix, 2-aminoanthracene (2AA) was tested as a positive control in both TA98 and TA100. DMSO was tested as a solvent control in both tester strains.

[4] = tested on: Salmonella typhimurium TA100; assay: Reverse mutation assay (Ames test), TA100; conditions: positive control, 650 µg/plate MMS; mean ± SD of 3 plates
Experimental: Six concentrations of each compound were tested in triplicate in the absence and presence of 5% (v/v) S9-mix prepared from the livers of Aroclor 1254 treated Sprague–Dawley rats. The S9-mix contained 4 mM NADP, 5.8 mM glucose-6-phosphate, 0.1 M sodium phosphate pH 7.4, 8 mM MgCl2, 33 mM KCl and 5% S9 homogenate. Fresh bacterial cultures were prepared overnight to reach 10^9 cells/ml. The following solutions were pre-incubated in a rotating incubator at 70 rpm and 37 °C, and contained either 0.5 ml S9-mix (in case of S9 presence) or 0.5 ml 0.1 M potassium phosphate pH 7.4 (in case of S9 absence), 0.1 ml of a fresh bacterial culture (10^9 cells/ml) of TA98 or TA100, and 10–100 µg test compound. Top agar was melted and heated to 45 °C. After preincubation, the substrate solutions were added to 3 ml of the molten top agar and mixed by vortexing and the top agar mixture was poured onto a minimal glucose agar plate. After solidification of the top agar, the plates were incubated at 37 °C for 48 h. The number of revertant colonies per plate was automatically counted with the Instem Sorcerer Colony Counter (Staffordshire, UK). In the absence of S9-mix, 2-nitrofluorene (NF) and methylmethanesulfonate (MMS) were tested as positive controls for incubations with TA98 and TA100, respectively. In the presence of S9-mix, 2-aminoanthracene (2AA) was tested as a positive control in both TA98 and TA100. DMSO was tested as a solvent control in both tester strains.

[5] = 0 to 600 μM, 20 min, NM = no metabolism
[6] = substrate 10-Methyl-9-ethylphenanthrene
[7] = substrate 1-N-hexylphenanthrene

CCCCCCCCCCCCc1cccc2c1ccc1ccccc12 [1-N-dodecylphenanthrene, 1-n-dodecylphenanthrene]
Metabolic conversion (metabolites formed) [1, 5]: No metabolic conversion was observed | Metabolic conversion (metabolites formed) [2, 5]: No metabolic conversion was observed

CCc1c(C)c2ccccc2c2ccccc12 [10-Methyl-9-ethylphenanthrene]
Vmax, formation of 9-(1-Hydroxyethyl)-10-methylphenanthrene RT = 6.65 min [1, 6]: 187.1 ± 45.2 pmol/min/mg microsomal protein | Vmax, formation of 9-(2-Hydroxyethyl)-10-methylphenanthrene RT = 6.5 min [1, 6]: 12.9 ± 1.8 pmol/min/mg microsomal protein | Vmax, formation of 9-Ethyl-10-(1-hydroxymethyl)-phenanthrene RT = 6.90 min [1, 6]: 85.9 ± 17.4 pmol/min/mg microsomal protein | Vmax, formation of Dihydro-10-methyl-9-ethylphenanthrene-diol RT = 4.29 min [1, 6]: 7.2 ± 1.7 pmol/min/mg microsomal protein | Vmax, formation of Dihydro-10-methyl-9-ethylphenanthrene-diol RT = 4.34 min [1, 6]: 10.5 ± 2.5 pmol/min/mg microsomal protein | Vmax, formation of 9-(1-Hydroxyethyl)-10-methylphenanthrene RT = 6.65 min [2, 6]: 630.2 ± 81.4 pmol/min/mg microsomal protein | Vmax, formation of 9-(2-Hydroxyethyl)-10-methylphenanthrene RT = 6.5 min [2, 6]: 21.0 ± 3.1 pmol/min/mg microsomal protein | Vmax, formation of 9-Ethyl-10-(1-hydroxymethyl)-phenanthrene RT = 6.90 min [2, 6]: 85.8 ± 11.6 pmol/min/mg microsomal protein | Vmax, formation of 9-Ethyl-10-methylphenanthrol RT = 7.82 min [2, 6]: 65.6 ± 9.8 pmol/min/mg microsomal protein | Vmax, formation of 9-Ethyl-10-methylphenanthrol RT = 8.3 min [2, 6]: 29.4 ± 7.7 pmol/min/mg microsomal protein | Vmax, formation of Dihydro-10-methyl-9-ethylphenanthrene-diol RT = 4.29 min [2, 6]: 6.4 ± 2.7 pmol/min/mg microsomal protein | Vmax, formation of Dihydro-10-methyl-9-ethylphenanthrene-diol RT = 4.34 min [2, 6]: 8.09 ± 1.6 pmol/min/mg microsomal protein

CCCCCCc1cccc2c1ccc1ccccc12 [1-N-hexylphenanthrene, 1-n-Hexylphenanthrene]
Vmax, formation of 1-Hydroxyhexyl-phenanthrene RT = 8.45 min [1, 7]: 48.3 ± 6.1 pmol/min/mg microsomal protein | Vmax, formation of 1-Hydroxyhexyl-phenanthrene RT = 8.82 min [1, 7]: 44.2 ± 4.8 pmol/min/mg microsomal protein | Vmax, formation of 1-Hydroxyhexyl-phenanthrene RT = 8.45 min [2, 7]: 103.4 ± 18.1 pmol/min/mg microsomal protein | Vmax, formation of 1-Hydroxyhexyl-phenanthrene RT = 8.58 min [2, 7]: 54.8 ± 5.2 pmol/min/mg microsomal protein | Vmax, formation of 1-Hydroxyhexyl-phenanthrene RT = 8.82 min [2, 7]: 25.6 ± 1.8 pmol/min/mg microsomal protein | Vmax, formation of 1-Hydroxyhexyl-phenanthrene RT = 9.13 min [2, 7]: 11.7 ± 0.9 pmol/min/mg microsomal protein

CCc1ccc2c(ccc3ccccc32)c1 [2-Ethylphenanthrene]
Vmax, formation of 2-(1-Hydroxyethyl)-phenanthrene RT = 6.21 min ([1]; substrate 2-Ethylphenanthrene): 468.8 ± 50.3 pmol/min/mg microsomal protein | Vmax, formation of Dihydro-2-ethylphenanthrene-diol RT = 5.16 min ([1]; substrate 2-Ethylphenanthrene): 18.4 ± 3.2 pmol/min/mg microsomal protein | Vmax, formation of Dihydro-2-ethylphenanthrene-diol RT = 5.29 min ([1]; substrate 2-Ethylphenanthrene): 22.1 ± 3.0 pmol/min/mg microsomal protein | Vmax, formation of Unknown metabolite RT = 9.38 min ([1]; substrate 2-Ethylphenanthrene): 37.2 ± 6.5 pmol/min/mg microsomal protein | Vmax, formation of 2-(1-Hydroxyethyl)-phenanthrene RT = 6.21 min ([2]; substrate 2-Ethylphenanthrene): 3149.0 ± 266.1 pmol/min/mg microsomal protein | Vmax, formation of 2-Ethylphenanthrol RT = 7.57 min ([2]; substrate 2-Ethylphenanthrene): 16.5 ± 3.1 pmol/min/mg microsomal protein | Vmax, formation of 2-Ethylphenanthrol RT = 7.74 min ([2]; substrate 2-Ethylphenanthrene): 16.6 ± 2.7 pmol/min/mg microsomal protein | Vmax, formation of 2-Ethylphenanthrol RT = 7.89 min ([2]; substrate 2-Ethylphenanthrene): 11.8 ± 2.4 pmol/min/mg microsomal protein | Vmax, formation of Dihydro-2-ethylphenanthrene-diol RT = 4.6 min ([2]; substrate 2-Ethylphenanthrene): 33.9 ± 11.8 pmol/min/mg microsomal protein | Vmax, formation of Dihydro-2-ethylphenanthrene-diol RT = 5.29 min ([2]; substrate 2-Ethylphenanthrene): 42.9 ± 3.5 pmol/min/mg microsomal protein | Vmax, formation of Unknown metabolite RT = 9.38 min ([2]; substrate 2-Ethylphenanthrene): 238.0 ± 23.9 pmol/min/mg microsomal protein

O=[N+]([O-])c1ccc2c(c1)Cc1ccccc1-2 [NF, 2-nitrofluorene, reference compound]
His + revertant colonies TA98 without S9-mix [3]: 1590±295

COS(C)(=O)=O [MMS, methylmethanesulfonate, reference compound]
His + revertant colonies TA100 without S9-mix [4]: 868±70 and 823±58 and 783±46

CCc1cc2ccccc2c2ccccc12 [9-Ethylphenanthrene]
Vmax, formation of 9-(1-Hydroxyethyl)-phenanthrene RT = 6.20 min ([1]; substrate 9-Ethylphenanthrene): 267.7 ± 17.4 pmol/min/mg microsomal protein | Vmax, formation of 9-(2-Hydroxyethyl)-phenanthrene RT = 6.00 min ([1]; substrate 9-Ethylphenanthrene): 61.4 ± 3.3 pmol/min/mg microsomal protein | Vmax, formation of 9-Ethylphenanthrol RT = 7.42 min ([1]; substrate 9-Ethylphenanthrene): 12.8 ± 1.1 pmol/min/mg microsomal protein | Vmax, formation of 9-Ethylphenanthrol RT = 7.58 min ([1]; substrate 9-Ethylphenanthrene): 29.1 ± 2.8 pmol/min/mg microsomal protein | Vmax, formation of Dihydro-9-ethylphenanthrene-diol RT = 3.81 min ([1]; substrate 9-Ethylphenanthrene): 15.2 ± 0.8 pmol/min/mg microsomal protein | Vmax, formation of Dihydro-9-ethylphenanthrene-diol RT = 3.88 min ([1]; substrate 9-Ethylphenanthrene): 23.5 ± 1.4 pmol/min/mg microsomal protein | Vmax, formation of 9-(1-Hydroxyethyl)-phenanthrene RT = 6.20 min ([2]; substrate 9-Ethylphenanthrene): 1206 ± 47.9 pmol/min/mg microsomal protein | Vmax, formation of 9-(2-Hydroxyethyl)-phenanthrene RT = 6.00 min ([2]; substrate 9-Ethylphenanthrene): 37.0 ± 2.26 pmol/min/mg microsomal protein | Vmax, formation of 9-Ethylphenanthrol RT = 7.42 min ([2]; substrate 9-Ethylphenanthrene): 29.7 ± 3.1 pmol/min/mg microsomal protein | Vmax, formation of 9-Ethylphenanthrol RT = 7.58 min ([2]; substrate 9-Ethylphenanthrene): 56.6 ± 1.8 pmol/min/mg microsomal protein | Vmax, formation of 9-Ethylphenanthrol RT = 7.93 min ([2]; substrate 9-Ethylphenanthrene): 22.8 ± 1.8 pmol/min/mg microsomal protein | Vmax, formation of Dihydro-9-ethylphenanthrene-diol RT = 3.81 min ([2]; substrate 9-Ethylphenanthrene): 12.0 ± 2.1 pmol/min/mg microsomal protein | Vmax, formation of Unknown metabolite RT = 9.35 min ([2]; substrate 9-Ethylphenanthrene): 52.7 ± 6.2 pmol/min/mg microsomal protein
